The species named for data set [1] is Homo sapiens. Briefly: Selectivity index, ratio of IC50 for RET (unknown origin) expressed in BaF3 cells to IC50 for RET V804M mutant (unknown origin) expressed […] cells. In kind it is cell-based.
Data set [2] has as its target Proto-oncogene tyrosine-protein kinase receptor Ret (Homo sapiens, UniProt P07949, V804M).
The species named for data set [3] is Homo sapiens. Briefly: Selectivity index, ratio of IC50 for KDR (unknown origin) expressed in BaF3 cells to IC50 for RET V804M mutant (unknown origin) expressed […] cells. It counts as cell-based.
The species entered for data set [4] is Homo sapiens. As to the kind of experiment: Selectivity index, ratio of IC50 for N-terminal His6-tagged recombinant human KDR (790 to end residue) expressed in baculovirus in Sf21 insect cells to IC50 for recombinant N-Terminal GST-tagged human RET V804M mutant (658 to end residues).
For data set [5], the species on record is Homo sapiens. As to the kind of experiment: Selectivity index, ratio of IC50 for GST-tagged human RET expressed in baculovirus to IC50 for recombinant N-Terminal GST-tagged human RET V804M mutant (658 to end residues).
Data set [6] can be described thus: Kinetic solubility of compound. In kind it is physicochemical. The settings on record: read-out: Kinetic_solubility.
A short description of data set [7]: Metabolic stability in mouse liver microsomes assessed as intrinsic clearance. It counts as ADME, Microsome. As to conditions: read-out: CLH. Background: Liver microsomes are vesicles of endoplasmic reticulum, rich in cytochrome P450 enzymes.
Data set [8] can be described thus: Apparent permeability in human Caco2 cells. In kind it is ADME, cell-based. The settings on record: Caco-2. (In general: Passage across Caco-2 layers is used to estimate intestinal permeability.)
Data set [9] in a line: Efflux ratio of apparent permeability in human Caco2 cells. In kind it is ADME, cell-based. As to conditions: Caco-2.

The text below walks through data of ChEMBL document CHEMBL4342511, “Discovery and Optimization of wt-RET/KDR-Selective Inhibitors of RETV804M Kinase” (ACS Med Chem Lett, 2020).

One may read the IC50 as the concentration needed to halve the response being measured. High values mean weaker potency in that assay, low ones greater potency in that assay. As usually defined, the Papp is a coefficient for how fast a substance crosses the barrier. By efflux ratio is commonly meant the permeability from basolateral to apical divided by that in the opposite direction, in the common usage.

In brackets after ≈: the same amount, converted by molar mass.

Sequence of Proto-oncogene tyrosine-protein kinase receptor Ret (P07949 29-1114 V804M limits assumed): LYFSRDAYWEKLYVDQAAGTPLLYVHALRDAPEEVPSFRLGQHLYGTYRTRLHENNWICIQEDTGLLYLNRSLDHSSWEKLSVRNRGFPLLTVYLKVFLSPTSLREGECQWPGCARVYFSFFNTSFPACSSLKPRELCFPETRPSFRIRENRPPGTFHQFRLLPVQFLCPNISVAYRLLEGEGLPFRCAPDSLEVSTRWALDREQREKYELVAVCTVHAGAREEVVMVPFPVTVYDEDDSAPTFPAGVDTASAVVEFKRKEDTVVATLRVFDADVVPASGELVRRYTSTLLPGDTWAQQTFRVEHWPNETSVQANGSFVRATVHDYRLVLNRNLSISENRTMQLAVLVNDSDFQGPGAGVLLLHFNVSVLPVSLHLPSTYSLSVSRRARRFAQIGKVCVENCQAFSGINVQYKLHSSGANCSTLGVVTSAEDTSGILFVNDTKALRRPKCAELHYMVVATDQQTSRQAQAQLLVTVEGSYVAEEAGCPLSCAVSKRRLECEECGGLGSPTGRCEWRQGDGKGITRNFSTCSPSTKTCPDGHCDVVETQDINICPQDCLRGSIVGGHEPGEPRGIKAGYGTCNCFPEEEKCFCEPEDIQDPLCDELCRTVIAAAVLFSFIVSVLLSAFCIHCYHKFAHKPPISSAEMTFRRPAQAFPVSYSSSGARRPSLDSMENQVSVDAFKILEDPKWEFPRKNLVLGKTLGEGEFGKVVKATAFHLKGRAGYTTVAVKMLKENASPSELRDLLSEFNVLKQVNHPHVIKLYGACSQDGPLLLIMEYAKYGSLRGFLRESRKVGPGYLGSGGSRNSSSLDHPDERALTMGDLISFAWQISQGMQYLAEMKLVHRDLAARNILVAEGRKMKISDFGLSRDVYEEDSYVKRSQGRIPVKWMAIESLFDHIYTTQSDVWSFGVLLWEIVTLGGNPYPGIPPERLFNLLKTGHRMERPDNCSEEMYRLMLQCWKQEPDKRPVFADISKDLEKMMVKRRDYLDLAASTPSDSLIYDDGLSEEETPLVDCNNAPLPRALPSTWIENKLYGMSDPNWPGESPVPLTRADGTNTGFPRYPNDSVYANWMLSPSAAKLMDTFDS

`NS(=O)(=O)c1ccc(-c2cnn3ccc(NCc4ccncc4)nc23)cc1`: the Ratio IC50 was determined as 1 in data set [1], 1 in [3], 220 in data set [4] and 1.3 in data set [5]. For the same compound, the IC50 in data set [2] is 360 nM.

With `CN(C)CCNc1ccn2ncc(-c3ccc4c(c3)OCO4)c2n1`, the Ratio IC50 was found to be 9.8 in data set [1], 13 in [3], 540 in data set [4] and 21 in [5]. In data set [2], this compound gave an IC50 of 91 nM.

With `c1ccc(CNc2ccn3ncc(-c4ccc5c(c4)OCO5)c3n2)cc1`, the IC50 in [2] is 29000 nM. Besides, the results for the Ratio IC50 in data set [4] and in data set [5] were 2.3 and 0.16, respectively.

On to `CN(C)C(=O)c1ccc(-c2cnn3ccc(NCc4ccncc4)nc23)cc1`, for which the IC50 in [2] came to 7600 nM. Moreover, the Ratio IC50 in data set [4] is 3.9; in [5], 1.8.

`O=C(O)c1ccc(-c2cnn3ccc(NCc4ccncc4)nc23)cc1` showed a half-inhibitory concentration (IC50) in [2] of 560 nM. The Ratio IC50 was 1.8 in data set [4] and 1.2 in data set [5].

As to `NC(=O)c1ccc(-c2cnn3ccc(NCc4ccccn4)nc23)cc1`, the Ratio IC50 in data set [1] was 0.9; in data set [3], 2; in data set [4], 22; in [5] it was 19. In data set [2], this compound returned an IC50 of 44 nM.

Regarding `c1ccc(-c2cnn3ccc(NCc4ccncc4)nc23)cc1`, inhibition in data set [2] was half-maximal at 1140 nM (IC50). In addition, the values for the Ratio IC50 in data set [4] and in data set [5] were 0.96 and 2.4, respectively.

Consider `NC(=O)c1cccc(-c2cnn3ccc(NCc4ccncc4)nc23)c1`, for which the IC50 in data set [2] was 4300 nM. Also, the Ratio IC50 in data set [4] amounted to 8.

Turning to `CN(C)CCNc1ccn2ncc(-c3ccc(C(N)=O)cc3)c2n1`, the Ratio IC50 in data set [1] was 0.3; in data set [3] it was 0.83; in data set [4] it was 54; in data set [5], 4.7. In addition, the IC50 in data set [2] came to 350 nM.

For the compound `OCCNc1ccn2ncc(-c3ccc4c(c3)OCO4)c2n1`, the Ratio IC50 was determined as 1.5 in data set [1], 1.5 in data set [3], 19 in data set [4] and 15 in data set [5]. The IC50 in data set [2] was found to be 130 nM.

In turn, `CC(=O)Nc1cccc(-c2cnn3ccc(NCc4ccncc4)nc23)c1` came in with an IC50 in data set [2] of 1600 nM. Moreover, the Ratio IC50 in [4] came out at 22; in data set [5], 4.

Compound `c1cc2c(cc1-c1cnn3ccc(NC4CCNCC4)nc13)OCO2` returned an IC50 in data set [2] of 880 nM. In addition, the results for the Ratio IC50 in data set [4] and in [5] were 17 and 1.2, respectively.

Take `c1cc(CNc2ccn3ncc(-c4ccc5cn[nH]c5c4)c3n2)ccn1`: the Ratio IC50 in [1] was determined as 1.9; in data set [3], 1.9; in [4], 83; in data set [5], 18. The same compound returned an IC50 in [2] of 300 nM.

Compound `CC(=O)Nc1ccc(-c2cnn3ccc(NCc4ccncc4)nc23)cc1` yielded an IC50 in [2] of 6700 nM. Further, the Ratio IC50 in data set [4] is 4.4; in data set [5], 2.6.

In data set [2], `c1cc(Nc2ccn3ncc(-c4ccc5c(c4)OCO5)c3n2)ccn1` returned a half-maximal inhibitory concentration (IC50) of 63000 nM. For the same compound, the Ratio IC50 in data set [4] and in data set [5] was 2.1 each time.

Consider `c1cc(CNc2ccn3ncc(-c4ccc5c(c4)OCO5)c3n2)ccn1`, for which the Ratio IC50 is 2.2 in data set [1], 6.2 in data set [3], 27 in [4] and 0.64 in [5]. For the same compound, the IC50 in data set [2] stood at 290 nM. The solubility kinetic in data set [6] is 30 µM (≈ 10.4 µg/mL).

For `NC(=O)c1ccc(-c2cnn3ccc(NCc4ccncc4)nc23)cc1`, the Ratio IC50 in [1] stood at 0.89; in data set [3], 2.3; in [4], 110; in [5], 3.7. This compound also yielded an IC50 in data set [2] of 20 nM.

`c1cc2c(cc1-c1cnn3ccc(NCCN4CCCCC4)nc13)OCO2` showed an IC50 in data set [2] of 660 nM. Besides, the results for the Ratio IC50 in [4] and in data set [5] were 34 and 5.3, respectively.

As for `c1ccc(CNc2ccn3ncc(-c4ccc5c(c4)OCO5)c3n2)nc1`, the Ratio IC50 was 3.1 in data set [1], 7.6 in [3], 100 in [4] and 14 in data set [5]. Also, the IC50 in data set [2] was found to be 39 nM.

`NC(=O)c1ccc(-c2cnn3ccc(NCc4cccnc4)nc23)cc1`: the Ratio IC50 in data set [1] was 0.85; in [3], 1.9; in data set [4] it was 19; in data set [5], 13. In addition, the IC50 in [2] was determined as 51 nM.

With `c1cc2c(cc1-c1cnn3ccc(NCC4CCNCC4)nc13)OCO2`, the Ratio IC50 stood at 0.85 in data set [1], 2.6 in data set [3], 64 in [4] and 1.2 in data set [5]. For the same compound, the IC50 in data set [2] came to 200 nM.

Turning to `CN(C)CCCNc1ccn2ncc(-c3ccc4c(c3)OCO4)c2n1`, the Ratio IC50 in data set [1] was 32; in data set [3], 76; in data set [4] it was 410; in [5], 16. Further, in data set [7], the microsomal CLint stood at 62 µL/min/mg. Moreover, in [8], the Papp turned out to be 22.8 ×10⁻⁶ cm/s. Inhibition in data set [2] was half-maximal at 19 nM (IC50). The efflux ratio in data set [9] amounted to 1.4. Moreover, in data set [6], the solubility kinetic was greater than 100 µM.

`CS(=O)(=O)Nc1ccc(-c2cnn3ccc(NCc4ccncc4)nc23)cc1` registered an IC50 in [2] of 1500 nM. Besides, the Ratio IC50 in data set [4] was found to be 29; in [5], 0.28.
